Tests used:
Leishmania infantum [1] = experiment: Antileishmanial activity against Leishmania infantum MCAN/ES/89/IPZ229/1/89 promastigotes assessed as reduction in parasite growth incubated for 24 hrs by flow cytometry analysis; format: functional, organism-based; conditions: MCAN/ES/89/IPZ229/1/89, 24 h
Leishmania infantum [2] = experiment: Antileishmanial activity against Leishmania infantum MCAN/ES/89/IPZ229/1/89 amastigotes assessed as reduction in parasite growth incubated for 24 hrs by flow cytometry analysis; format: functional, organism-based; conditions: MCAN/ES/89/IPZ229/1/89, 24 h
[3] = Selectivity ratio of IC50 for cytotoxicity against human THP-1 cells to IC50 for Antileishmanial activity against Leishmania infantum MCAN/ES/89/IPZ229/1/89 amastigotes; format: toxicity, cell-based; conditions: read-out: Ratio IC50
Trypanosoma cruzi [4] = experiment: Trypanocidal activity against Trypanosoma cruzi Y strain; format: functional, organism-based
Trypanosoma cruzi [5] = experiment: Trypanocidal activity against Trypanosoma cruzi Y strain amastigotes measured after 48 hrs; format: functional, organism-based
Trypanosoma cruzi [6] = experiment: Trypanocidal activity against Trypanosoma cruzi Y strain epimastigotes measured after 72 hrs; format: functional, organism-based
Trypanosoma cruzi [7] = experiment: Potency index, ratio of test compound IC50 to Benznidazole IC50 for Trypanocidal activity against Trypanosoma cruzi Y strain measured after 24 hrs; format: functional
Trypanosoma cruzi [8] = experiment: Trypanocidal activity against Trypanosoma cruzi Y strain measured after 24 hrs; format: functional, organism-based
[9] = Selectivity ratio of IC50 for cytotoxicity against mouse J774.1 cells to IC50 for Trypanocidal activity against Trypanosoma cruzi Tulahuen 2 strain; format: toxicity, cell-based; conditions: read-out: Ratio IC50
[10] = Selectivity ratio of IC50 for cytotoxicity against human MRC5 cells to IC50 for Trypanocidal activity against Trypanosoma cruzi Tulahuen CL2 strain; format: toxicity, cell-based; conditions: read-out: Ratio IC50

C[Se]/C(=N/C(=O)c1cccnc1)NC(=O)c1cccnc1
IC50 (Leishmania infantum [1]): 3.74 µM
IC50 (Leishmania infantum [2]): 3.03 µM
selectivity ratio [3]: 4

CC1(C)OC2=C(CC1[Se]c1cccc(Cl)c1)C(=O)C(=O)c1ccccc12 (stereo not given)
IC50 (Trypanosoma cruzi [4]): 360 µM

CC1(C)OC2=C(CC1[Se]c1cccc(Br)c1)C(=O)C(=O)c1ccccc12 (stereo not given)
IC50 (Trypanosoma cruzi [4]): 477 µM

CCNC(=O)SCCOc1ccc(Oc2ccccc2)cc1
IC50 (Trypanosoma cruzi [5]): 7.88 µM

CC(C)=CCC/C(C)=C/COc1ccc(CCN(C)C(=O)/C=C/S(C)(=O)=O)cc1
IC50 (Trypanosoma cruzi [6]): 1.23 µM

CC1(C)OC2=C(CC1[Se]c1ccc(C(F)(F)F)cc1)C(=O)C(=O)c1ccccc12 (stereo not given)
IC50 (Trypanosoma cruzi [4]): 54.9 µM
Ratio IC50 (Trypanosoma cruzi [7]): 2

COc1ccccc1/C=C/C=N/NC(N)=S
IC50 (Trypanosoma cruzi [8]): 0.4 µM

O=C(Cn1ccnc1[N+](=O)[O-])NCc1ccccc1 [BENZNIDAZOLE]
IC50 (Trypanosoma cruzi [4]): 104 µM

O=C(CS/C(C(=O)c1ccc2ccccc2c1)=C1\C=C(c2ccc(O)cc2)SS1)c1ccc2ccccc2c1
selectivity ratio at 48 h [9]: 12.8

Cc1cccc([Se]C2CC3=C(OC2(C)C)c2ccccc2C(=O)C3=O)c1 (stereo not given)
IC50 (Trypanosoma cruzi [4]): 1680 µM

COc1cccc([Se]C2CC3=C(OC2(C)C)c2ccccc2C(=O)C3=O)c1 (stereo not given)
IC50 (Trypanosoma cruzi [4]): 208 µM

CCOc1cccc2sc(N(Cc3cccnc3)C(=O)C3CCCCC3)nc12
selectivity ratio [10]: > 200

— ChEMBL document CHEMBL5244256, “Selenium as an interesting option for the treatment of Chagas disease: A review” (Eur J Med Chem, 2020)
